Data taken from US20220378707A1, “1-(((2S,3S,4S)-3-ETHYL-4-FLUORO-5-OXOPYRROLIDIN-2-YL)METHOXY)-7-METHOXYISOQUINOLINE-6-CARBOXAMIDE COMBINATIONS AND ORAL DOSAGE FORMS” (Pfizer Inc., priority 2019, published 2022).

Tested on: coronary artery smooth muscle cells+(IL-1p, TNFα and IFNγ)
Assay: BioMAP CASM3C system
Type: cell-based, human
Conditions: Th1 vascular smooth muscle inflammation; concentrations of FIGS. 12-14
Text: The BioMAP systems consist of human primary cell-based systems designed to model different aspects of the human body in an in vitro format. The 12 systems tested characterized the test compounds across a broad set of systems modeling various human disease states. BioMAP systems were constructed with one or more primary cell types from healthy human donors, with stimuli (such as cytokines or growth factors) added to capture relevant signaling networks that naturally occur in human tissue or pathological conditions. […] Soluble factors from supernatants were quantified using either HTRF® detection, bead-based multiplex immunoassay or capture ELISA. Overt adverse effects of test agents on cell proliferation and viability (cytotoxicity) were detected by sulforhodamine B (SRB) staining, for adherent cells, and alamarBlue® reduction for cells in suspension. […] Each tested compound generated a signature BioMAP profile that was created from the changes in protein biomarker readouts within individual system environments. […] Each readout was measured quantitatively by immune-based methods that detected protein (e.g., ELISA) or functional assays that measured proliferation and viability. BioMAP readouts were diverse and included cell surface receptors, cytokines, chemokines, matrix molecules and enzymes. […]

## CC[C@@H]1[C@H](F)C(=O)N[C@@H]1COc1nccc2cc(C(N)=O)c(OC)cc12 [PF-06650833, 1-(((2S,3S,4S)-3-Ethyl-4-fluoro-5-oxopyrrolidin-2-yl)methoxy)-7-methoxyisoquinoline-6-carboxamide]
  Inhibition of biomarker readouts in the CASM3C system: IL-6

## C[C@@H]1CCN(C(=O)CC#N)C[C@@H]1N(C)c1ncnc2[nH]ccc12 [tofacitinib, 3-((3R,4R)-4-Methyl-3-(methyl(7H-pyrrolo[2,3-d]pyrimidin-4-yl)amino)piperidin-1-yl)-3-oxopropanenitrile]
  Inhibition of biomarker readouts in the CASM3C system: MIG
